Experimental data: patent publication US20100240093A1, “Isolated Staphylococcus Pseudolugdunensis” (priority 2006, published 2010)

Tests used:
isolate B277 = experiment: Disc diffusion antimicrobial susceptibility testing; assay type: cell-based, Staphylococcus pseudolugdunensis; details: isolate 8277; also: key: R—resistant; S—susceptible
Procedure: (§1) In vitro antimicrobial susceptibility testing for amoxicillin-clavulanate, cefazolin, clindamycin, erythromycin, gentamicin, levofloxacin, minocycline, penicillin, rifampin, trimethoprim/sulfamethoxazole (SXT) and vancomycin was determined by a disc diffusion method in accordance with Clinical and Laboratory Standards Institute guidelines (CLSI Performance standards for antimicrobial disk susceptibility tests; Approved standard, 9th ed. (2006) Clinical and Laboratory Standards Institute, Wayne, Pa.).

isolate B006 = experiment: as above; assay type: cell-based, Staphylococcus pseudolugdunensis; also: key: R—resistant; S—susceptible
Procedure: as §1

isolate B739 = experiment: as above; assay type: cell-based, Staphylococcus pseudolugdunensis; details: isolate 8739; also: key: R—resistant; S—susceptible
Procedure: as §1

isolate B230 = experiment: as above; assay type: cell-based, Staphylococcus pseudolugdunensis; also: key: R—resistant; S—susceptible
Procedure: as §1

isolate B354 = experiment: as above; assay type: cell-based, Staphylococcus pseudolugdunensis; also: key: R—resistant; S—susceptible
Procedure: as §1

isolate B715 = experiment: as above; assay type: cell-based, Staphylococcus pseudolugdunensis; details: isolate 13715; also: key: R—resistant; S—susceptible
Procedure: as §1

isolate B060 = experiment: as above; assay type: cell-based, Staphylococcus pseudolugdunensis; also: key: R—resistant; S—susceptible
Procedure: as §1

isolate B334 = experiment: as above; assay type: cell-based, Staphylococcus pseudolugdunensis; also: key: R—resistant; S—susceptible
Procedure: as §1

isolate B333 = experiment: as above; assay type: cell-based, Staphylococcus pseudolugdunensis; also: key: R—resistant; S—susceptible
Procedure: as §1

isolate B287 = experiment: as above; assay type: cell-based, Staphylococcus pseudolugdunensis; details: isolate 8287; also: key: R—resistant; S—susceptible
Procedure: as §1

isolate B837 = experiment: as above; assay type: cell-based, Staphylococcus pseudolugdunensis; also: key: R—resistant; S—susceptible
Procedure: as §1

isolate B292 = experiment: as above; assay type: cell-based, Staphylococcus pseudolugdunensis; details: isolate 13292; also: key: R—resistant; S—susceptible
Procedure: as §1

12 isolates = experiment: Disc diffusion antimicrobial susceptibility testing, all isolates; assay type: cell-based, Staphylococcus pseudolugdunensis
Procedure: as §1

isolates B230 and B333 = experiment: Clinical case of intravenous line-associated infection; assay type: in vivo, human; details: patient with intravenous line-associated infection, line removed
Procedure: The relatedness of these 12 ODC/PYR-positive CoNS was further analyzed by pulsed field gel electrophoresis (PFGE). All isolates were unrelated, except for two isolates (B230 and B333) which were recovered from the same patient over a 16-day interval. […] Vancomycin was administered and the line removed.
Medical records of the 11 patients from whom these isolates were recovered were reviewed and the demographic and clinical information are listed in Table 3. Two isolates (B230 and B333), which were recovered from the same patient over a 16-day interval, were considered to be the pathogen that caused an intravenous line-associated infection. The remaining 10 isolates were considered to be contaminants. Antibiotics, including vancomycin, were administered in 6 (54.5%) cases, including one case in which the two isolates were considered pathogens and in 5 of 10 cases in which the isolates were considered contaminants (Table 3).

| Compound | Antimicrobial susceptibility (isolate B277) | Antimicrobial susceptibility (isolate B006) | Antimicrobial susceptibility (isolate B739) | Antimicrobial susceptibility (isolate B230) | Antimicrobial susceptibility (isolate B354) | Antimicrobial susceptibility (isolate B715) | Antimicrobial susceptibility (isolate B060) | Antimicrobial susceptibility (isolate B334) | Antimicrobial susceptibility (isolate B333) | Antimicrobial susceptibility (isolate B287) | Antimicrobial susceptibility (isolate B837) | Antimicrobial susceptibility (isolate B292) | Susceptibility of all 12 isolates (12 isolates) | Patient outcome (isolates B230 and B333) |
| --- | --- | --- | --- | --- | --- | --- | --- | --- | --- | --- | --- | --- | --- | --- |
| Cc1nnc(SCC2=C(C(=O)O)N3C(=O)[C@@H](NC(=O)Cn4cnnn4)[C@H]3SC2)s1 [Cefazolin] | S | R | R | S | S | R | S | R | S | S | R | S | – | – |
| CCC[C@@H]1C[C@@H](C(=O)N[C@@H]([C@H]2O[C@H](SC)[C@H](O)[C@@H](O)[C@H]2O)[C@H](C)Cl)N(C)C1 [Clindamycin] | S | S | R | S | S | S | S | R | R | S | R | S | – | – |
| CC[C@H]1OC(=O)[C@H](C)[C@@H](O[C@H]2C[C@@](C)(OC)[C@@H](O)[C@H](C)O2)[C@H](C)[C@@H](O[C@@H]2O[C@H](C)C[C@H](N(C)C)[C@H]2O)[C@](C)(O)C[C@@H](C)C(=O)[C@H](C)[C@@H](O)[C@]1(C)O [Erythromycin] | S | R | R | S | S | S | S | R | R | S | R | S | – | – |
| C[C@H]1COc2c(N3CCN(C)CC3)c(F)cc3c(=O)c(C(=O)O)cn1c23 [Levofloxacin] | S | S | S | R | S | R | S | R | S | R | S | S | – | – |
| COc1cccc(OC)c1C(=O)N[C@@H]1C(=O)N2[C@@H]1SC(C)(C)[C@@H]2C(=O)O [Methicillin] | S | R | R | S | S | R | S | R | S | S | R | S | – | – |
| CN(C)c1ccc(O)c2c1C[C@H]1C[C@H]3[C@H](N(C)C)C(O)=C(C(N)=O)C(=O)[C@@]3(O)C(O)=C1C2=O [Minocycline] | S | S | S | S | S | S | S | S | S | S | S | S | – | – |
| CO[C@H]1/C=C/O[C@@]2(C)Oc3c(C)c(O)c4c(O)c(c(/C=N/N5CCN(C)CC5)c(O)c4c3C2=O)NC(=O)/C(C)=C\C=C\[C@H](C)[C@H](O)[C@@H](C)[C@@H](O)[C@@H](C)[C@H](OC(C)=O)[C@@H]1C [Rifampin] | S | S | S | S | S | S | S | S | S | S | S | S | susceptible | – |
| CN[C@H](CC(C)C)C(=O)N[C@H]1C(=O)N[C@@H](CC(N)=O)C(=O)N[C@H]2C(=O)N[C@H]3C(=O)N[C@H](C(=O)N[C@H](C(=O)O)c4cc(O)cc(O)c4-c4cc3ccc4O)[C@H](O)c3ccc(c(Cl)c3)Oc3cc2cc(c3O[C@@H]2O[C@H](CO)[C@@H](O)[C@H](O)[C@H]2O[C@H]2C[C@](C)(N)[C@H](O)[C@H](C)O2)Oc2ccc(cc2Cl)[C@H]1O [Vancomycin] | S | S | S | S | S | S | S | S | S | S | S | S | susceptible | recovered fully |
| Amoxicillin-clavulanate | S | R | R | S | S | R | S | R | S | S | R | S | – | – |
| Gentamicin | S | S | S | S | S | S | S | S | S | S | S | S | susceptible | – |
| Penicillin | S | R | R | R | S | R | R | R | R | R | R | R | – | – |
| Trimethoprim/sulfamethoxazole | S | S | S | R | S | R | R | R | S | R | S | S | – | – |
